Laboratory results reported in patent publication US20250360091A1, “COMBINATION OF SGLT2 INHIBITOR AND MENTHOL AND USE THEREOF IN TREATMENT OF HEART DISEASE” (EAST CHINA UNIVERSITY OF SCIENCE AND TECHNOLOGY, priority 2023, published 2025).

Tests used:
[1] = test system: intracellular calcium concentration; assay: Intracellular calcium ion concentration with calcium probe Fluo4-AM (Example 5); assay type: cell-based; settings: cariporide 100 μM, empagliflozin 50 μM, menthol 200 μM, combination 50 μM + 200 μM
Description: Intracellular calcium overload is an important factor in the transition of myocardial cells from reversible to irreversible damage. Intracellular calcium overload can be seen in a variety of cardiac pathological states, such as cardiac remodeling, myocardial ischemia-reperfusion injury, viral myocarditis, dilated cardiomyopathy, arrhythmias, and congestive heart failure. […] Empagliflozin can act on the sodium-hydrogen exchanger 1 (NHE1) on the myocardial cell membrane. When myocardial ischemia occurs, myocardial cell energy metabolism is impaired, and myocardial cells switch from fatty acid metabolism to sugar-free glycolysis, producing a large amount of lactic acid, which reduces the intracellular pH. As a regulatory protein for cell pH homeostasis, NHE1 can transport H^+ out of the cell by exchanging extracellular sodium ions, resulting in an increase in the intracellular sodium ion concentration. […] When mitochondrial function is impaired, the release of ROS increases, and ROS can further stimulate L-type calcium channels, promoting Ca^2+ influx, creating a vicious cycle. Empagliflozin inhibits the activity of NHE1 and can indirectly reduce the intracellular calcium ion concentration. Menthol, as an L-type calcium channel blocker, can synergistically reduce the intracellular calcium ion concentration with empagliflozin, playing a synergistic role. In order to verify this synergistic mechanism, the intracellular calcium ion concentration was detected using the calcium ion probe Fluo4-AM.
The experiment was divided into 5 groups, including control group (no drug group), cariporide group (positive control group, 100 μM), EMPA-50 (empagliflozin, 50 μM), M-200 (menthol, 200 μM), and E50+M200 (combination of 50 μM empagliflozin and 200 μM menthol).
• (1) Take an appropriate amount of Fluo4-AM stock solution (2 mM, BeyoTime, S1060) and dilute it to a 10 μM working solution with HBSS; • (2) For the cells to be tested (covering the bottom of the dish), remove the culture medium and wash with HBSS three times; • (3) Add 25 μL of Fluo4-AM working solution to each well, and then add 25 μL of compound solution to each well; • (4) Incubate at 37° C. for 30 min for fluorescent probe loading; • (5) Wash three times with HBSS, and add 100 μL of HBSS containing 10 mM CaCl2) to each well. Detect quantitatively the fluorescence of Fluo4-AM using a multifunctional fluorescence microplate reader (excitation wavelength 488 nm, emission wavelength 520 nm) to determine the changes in intracellular calcium ions.
Since empagliflozin indirectly affects intracellular calcium concentration by inhibiting NHE1, the intracellular environment was made acidic by using ammonium chloride solution to simulate the environment during myocardial ischemia, and the effect of the administered composition on intracellular calcium ions was tested. The NHE1 inhibitor cariporide was used as a positive control. The above step (3) was changed to add 25 μL of Fluo4-AM working solution to each well, mix the test compound with 80 mM NH4Cl solution at a 1:1 ratio, and then add 25 μL mixed solution of the compound and NH4Cl to each well (the final concentration of NH4Cl was 20 mM), and the remaining steps were the same as above.

[2] = test system: Rat cardiomyocytes (H9c2); assay: GD-induced myocardial cell damage model, CCK-8, SGLT2 inhibitors with L-menthol (Example 9); assay type: cell-based; settings: single drugs: SGLT2 inhibitor 50 μM or menthol 200 μM; GD 36-48 h; untreated group 54.7%
Procedure: In this example, the protective effect of the drug composition on myocardial cells was evaluated by using a GD-induced myocardial cell damage model. […] Rat cardiomyocytes (H9c2) were purchased from the Chinese Academy of Sciences Stem Cell Bank. The cardiomyocytes were cultured in high-glucose DMEM medium (Gibco, 11995-065) containing 10% fetal bovine serum and 1% penicillin/streptomycin, and incubated in a 37° C., 5% CO2 incubator. […] When the cells reached confluence, the DMEM medium was removed, and the cells were washed once with PBS. […] The synergistic coefficient was calculated using the Zero interaction dose model, with the formula: CI=(EAB−EA*EB)/(EA+EB−EA*EB), wherein CI is the synergistic effect index, EAB is the efficacy index of the combination of drugs, and EA and EB are the efficacy indices of the individual drugs, respectively.

H9c2 cells = assay: Oil Red O staining of palmitic acid-induced lipid accumulation (Example 6); assay type: cell-based, Rat; settings: used alone: EMPA 50 or 100 μM, MEN 200 μM; 24 h after 200 μM palmitic acid 48 h
Procedure: 1. Oil Red O staining. H9c2 cells were seeded in 12-well plates (1×10^5 cells per well) and cultured to 80-90% confluence. The cells were incubated with lipid medium containing 200 μM palmitic acid (Sigma-Aldrich, P0500) for 48 h to induce lipid droplet accumulation. The lipid medium was removed, and the cells were cultured for 24 h with medium containing 50 μM EMPA (E50, EMPA-50), 100 μM EMPA (E100), 200 μM MEN (M200), and 50 μM EMPA+200 μM MEN (E50+M200) but without palmitic acid. After the incubation, the cells were stained with Oil Red. The cells were washed 3 times with PBS and fixed with 4% paraformaldehyde at room temperature for 30 min. They were washed again with PBS 3 times and incubated with Oil Red O working solution at room temperature for 30 min. After rinsing with PBS 3 times, the cells were imaged under a microscope. The red area (positive area of lipid accumulation) was measured using Image J software package. The experiment was divided into 6 groups, black group (blank group, not treated with lipid medium and drugs), control group (control group, treated with lipid medium but not treated with drugs), E50 group (treated with lipid medium and then 50 μM EMPA), E100 (treated with lipid medium and then 100 μM EMPA), M200 (treated with lipid medium and then 200 μM menthol), E50+M200 (treated with lipid medium and then 50 μM empagliflozin+200 μM menthol).

[3] = NH4Cl present (20 mM, acidic intracellular conditions)

OC[C@H]1O[C@@H](c2ccc(Cl)c(Cc3ccc(O[C@H]4CCOC4)cc3)c2)[C@H](O)[C@@H](O)[C@@H]1O [empagliflozin]
effect on intracellular calcium concentration (Fluo4-AM fluorescence) [1, 3]: significantly reduce intracellular calcium concentration | effect on intracellular calcium concentration (Fluo4-AM fluorescence) ([1]; absence of NH4Cl): almost no effect | cell survival rate [2]: 64.5% | lipid accumulation in cardiomyocytes (Oil Red O staining area) (H9c2 cells): significantly reduce lipid accumulation

CC(C)[C@@H]1CC[C@@H](C)C[C@H]1O [menthol, L-menthol]
effect on intracellular calcium concentration (Fluo4-AM fluorescence) [1, 3]: weak effect of reducing intracellular calcium concentration | effect on intracellular calcium concentration (Fluo4-AM fluorescence) ([1]; absence of NH4Cl): weak inhibitory effect | cell survival rate [2]: 56.7% | lipid accumulation in cardiomyocytes (Oil Red O staining area) (H9c2 cells): significantly reduce lipid accumulation
